A short description of data set [1]: Solubility in physiological saline solution. It is filed as physicochemical. As to conditions: saline or isotonic, read-out: concentration achieved in physiological saline solution. Here is the method: (§1) For the biotests compound 5b was dissolved in physiological saline solution. […] Customarily, in vivo applications to animals require only concentrations up to 3 mM. In order to check the chemical stability of such solutions of 5b they were stored for one month and subsequently used in in vitro tests alongside freshly prepared solutions of the same concentrations of 5b.

A short description of data set [2]: Chemical stability of solutions stored for one month, retested in vitro. Format: physicochemical. As to conditions: solution stored for one month vs freshly prepared; tubulin polymerization and SRB assays. Here is the method: as §1
A further data set relates to tubulin. Description: Tubulin Polymerization assay (fluorescence kit). It is filed as biochemical. Here is the method: Analysis of tubulin polymerization was performed using the Tubulin Polymerization Assay Kit (Cytoskeleton, USA) according to manufacturer's instructions. The assay is fluorescence-based and tubulin polymerization was followed by measuring RFU (relative fluorescence units) on the SpectraFluor Plus (Tecan, Switzerland) using the following filters: excitation 360 nm, emission 465 nm.

In data set [3] the test system is H12.1 germ cell tumor cell line. Kind of data set: SRB-cytotoxicity assay, H12.1. Format: cell-based. As to conditions: Homo sapiens, 96 h. As to the method: The cytotoxic activity of 5b was established by standard colorimetric tests (SRB- and MTT-assays) against various tumor cell lines of different entities. For the SRB cytotoxicity assay, dose-response curves of the testicular germ cell tumor cell lines exposed to drug concentrations of 0.001-10 μM were established using the sulforhodamine-B (SRB) microcuiture colorimetric assay (Papazisis et al. Optimization of the sulforhodamine B colorimetric assay. J. Immunol. Methods 1997, 208, 151-158) and performed as described in: Müller et al. Failure of activation of caspase-9 induces a higher threshold for apoptosis and cisplatin resistance in testicular cancer. Cancer Res. 2003, 63, 513-521. Briefly, cells were seeded into 96-well plates on day 0, at cell densities previously determined to ensure exponential cell growth during the period of the experiment. On day 1, cells were treated with the drugs dissolved in medium to give the appropriate concentrations for indicated times and the percentage of surviving cells relative to untreated controls was determined on day 5.
A general note: Sulforhodamine B stains cellular protein and so reports cell mass.

Data set [4] concerns 1411HP germ cell tumor xenografts. Kind of data set: Nude mouse xenograft model of resistant 1411HP. It is filed as in vivo. As to conditions: for intra-tumoral hemorrhage (vascular disrupting effect): after 24 h. As to the method: In vivo antitumor activity and tolerability of compounds 5b and 6b of the invention were studied in a nude mouse xenograft model of the resistant germ cell tumor cell line 1411HP employing Athymic Nude-Fox n1 nu/nu mice (Harlan und Winkelmann, Borchen, Germany).
The tests were carried out as follows. The mice were kept under pathogen-free conditions, fed on an autoclaved standard diet and given free access to sterilized water. Each of five mice were administered a 150 μL phosphate buffered saline suspension of 10 million 1411HP cells into the left flank to generate subcutaneous xenograft tumors. After 4 weeks one group of two mice bearing 1411HP xenografts with a volume of ca. 1 cm^3 were injected i.p. with a single dose of 30 mg/kg body weight of 5b or 6b, respectively. Two mice in the second group with xenografts of a volume of ca. 2.5 cm^3 were injected i.p. with 20 mg/kg body weight of 5b on two consecutive days. Tumor volumes were calculated by caliper measurement using the formula a^2×b×0.5 with a being the short and b the long dimension. Body weight was assessed twice weekly and daily while under therapy.

The subject of data set [5] is A2780 ovarian carcinoma xenografts. Kind of data set: A2780 ovarian carcinoma xenograft model. It is filed as in vivo, mouse.
In data set [6] the test system is HL-60 cells. Description: TUNEL assay. Conditions: 10 μM; 16 h incubation. It is filed as cell-based, human.
The next data set concerns HUVEC cells. Description: Tube formation assay on matrigel. It is filed as cell-based. Conditions: 7.72 ng/mL. Here is the method: 35 μL of media:matrigel (1:1) were added into wells of a 96-well plate and incubated at 37° C. for 30 minutes. A trypsinized HUVEC cell suspension was set to 800.000 cells/mL. In another 96-well plate 25 μL of the compound stock were serially diluted with 25 μL of media. 25 μL of compound dilutions and 25 μL of cell suspension were added to the matrigel coated 96-well plate and the cells were incubated over night. As a negative control, methanol was used as in place of the compound dilutions.

For data set [7], the system named is HL-60 cells. Kind of data set: Mitochondrial membrane assay (JC-1), HL-60. As to conditions: 5 μM, red/green fluorescence ratio relative to untreated controls (100%), mean ± SD. It is filed as cell-based, human.
Data set [8] deals with 1411HP germ cell tumor xenografts. Kind of data set: Nude mouse xenograft model of resistant 1411HP. As to conditions: 60 mg/kg peroral; 24 h. Format: in vivo.
Where [9] appears, read: dual-dose i.p. 20 mg/kg on two consecutive days.
The mark [10] stands for this setting: single dose 30 mg/kg i.p., xenografts ca. 1 cm3.

Entries after “also recorded” stand apart in the source; their conditions may differ. A value given as a limit tells only on which side of the number the result lay.

For orientation: IC50 means the concentration that gives 50% inhibition. A higher IC50 goes with a need for much substance.

On to `COc1ccc(-c2c(-c3cc(Cl)c(OC)c(OC)c3)ncn2C)cc1N` [compound 5b, 1-methyl-5-(3-amino-4-methoxyphenyl)-4-(3-chloro-4,5-dimethoxyphenyl)-imidazole], for which, in data set [1], the solubility was at least 10 mM. Also, the “chemical stability in solution (activity retained)” value in data set [2] is “No loss of activity; also recorded: persistence of efficacy; also recorded: high, unattenuated activity and efficacy”. Also, in the data set with tubulin, the “inhibition of tubulin polymerization” value is “effectively inhibits the polymerization of tubulin”. Also, the IC50 in data set [3] lay within 30 to 50 nM. Also, in data set [4] (setting [9]), the tumor response entry is recorded as “dramatic tumor regressions, leading even to a stabilization in one case”. In data set [4] (single dose 30 mg/kg i.p.), the tolerability result was “tolerated this treatment very well”. In data set [4] (setting [10]), the “intra-tumoral hemorrhage (vascular disrupting effect)” value is “strong intra-tumoral hemorrhage”; the tumor response entry is “transient swelling of the tumors, eventually followed by regression and slow regrowth”. Moreover, the “duration of tumor volume stabilization” value in data set [4] (single dose application) was “stabilize the tumor volume for about two weeks”. Besides, the “tolerability of repeated applications” value in [4] (third course of double dose 20 mg/kg i.p.) was “well tolerated”. Also, the “tumor response to repeated applications” value in data set [4] (three double doses of 20 mg/kg i.p. (further on days 16/17 and 35/36)) was “regressions and prolonged periods of stabilization following each of the three applications”. Further, the vascular disrupting effect entry in data set [5] is recorded as “vascular disrupting activity”. Moreover, the “apoptotic (TUNEL-positive) cells” value in the data set on HL-60 cells [6] was “about 60%”. The “inhibition of tube formation” value in the data set with HUVEC cells is given as “did not yield a correspondingly strong inhibition at this concentration”.
Take `COc1ccc(-c2c(-c3cc(Br)c(OC)c(OC)c3)ncn2C)cc1N` [compound 6b, 1-methyl-5-(3-amino-4-methoxyphenyl)-4-(3-bromo-4,5-dimethoxyphenyl)-imidazole]: the vascular disrupting effect result in data set [4] (1411HP xenograft model) is on record as “vascular disrupting activity; also recorded: vascular disrupting in tumor xenografts”; in data set [5], “vascular disrupting activity”. Moreover, the tumor response entry is “high antitumor activity to a similar extent as compound 5b” in data set [4] (setting [9]); “transient swelling of the tumors, eventually followed by regression and slow regrowth” in data set [4] (setting [10]). In addition, in data set [4] (single dose 30 mg/kg i.p.), the tolerability result is listed as “tolerated this treatment very well”. The “intra-tumoral hemorrhage (vascular disrupting effect)” value in [4] (setting [10]) was “strong intra-tumoral hemorrhage”. Besides, the “Intact mitochondria [%] in HL-60 cells after 72 h” value in the data set with HL-60 cells [7] is recorded as 66 ± 10%. Besides, the “apoptotic (TUNEL-positive) cells” value in the data set with HL-60 cells [6] is reported as “about 60%”. In the data set on HUVEC cells, the “inhibition of tube formation” value is “pronounced inhibition of tube formation”. In data set [8], the “vascular disrupting effect after oral administration” value is reported as “occurred to same extent as seen after i.p. application”.

The record behind these values is patent US8980933B2, “Combretastatin analogs for use in the treatment of cancer” (Universitat Bayreuth, priority 2010, dated 2015).
